The structures appear in SMILES notation. ≈ marks a conversion by molar mass, not a printed value. Where two headings read alike, the source gives them in different places.

In one assay the test system is Acinetobacter baumannii. Description: Broth microdilution MIC testing. It is filed as cell-based. The settings on record: Acinetobacter baumannii MMX 1630/ATCC 19606, susceptible; for MIC: ATCC19606, read-out: Minimal Inhibitory Concentration. On the procedure: (§1) Broth microdilution assay: Mueller Hinton II broth (MHB II, BBL, BD, catalog no. 212322; lot no. 5257869) was used for testing most aerobes.
(§2) MIC values were determined using a broth microdilution procedure described by CLSI, see reference (1). Automated liquid handlers (Multidrop 384, Labsystems, Helsinki, Finland; Biomek 2000 and Biomek FX, Beckman Coulter, Fullerton Calif.) were used to conduct serial dilutions and liquid transfers.
(§3) The wells in Columns 2 through 12 of two standard 96-well microdilution plates (Costar 3795, Corning Inc., Corning, N.Y.) were filled with 150 μL of diluent specific to the compound tested. Three hundred microliters of each comparator and investigational drug solution (40× or 100×) was added to one well in Column 1 of the plates. The Biomek 2000 was used to complete the serial transfers through Column 11. The wells of Column 12 contained no drug and were the organism growth control wells. These panels were the “mother plates.”
(§4) Because drugs were prepared at either 40× or 100×, the “daughter plates” were loaded with 185-188 μL of the appropriate test media for the tested organism, using the Multidrop 384 or by hand. The daughter plates were prepared on the Biomek FX instrument, which transferred 2-5 μL of drug solution from each well of a mother plate to the corresponding well of each daughter plate in a single step. The wells of the daughter plates ultimately contained 185-188 μL of broth appropriate to the organism, 2-5 μL of drug solution, and 10 μL of bacterial inoculum prepared in broth.
(§5) Standardized inoculum of each organism was prepared per CLSI methods, see reference (1). The inoculum for each organism was dispensed into sterile reservoirs divided by length (Beckman Coulter), and the Biomek 2000 was used to inoculate the plates. Daughter plates were placed on the Biomek 2000 work surface in reverse orientation so that inoculation took place from low to high drug concentration. The Biomek 2000 delivered 10 μL of standardized inoculum into each well. This yielded a final cell density in the daughter plates of approximately 5×10^5 CFU/mL.
(§6) Plates were stacked 3 high, covered with a lid on the top plate, placed in plastic bags, and incubated at 35° C. for approximately 18 to 20 hr. Following incubation, the microplates were removed from the incubator and viewed from the bottom using a plate viewer. […] The MIC was read and recorded as the lowest concentration of drug that inhibited visible growth of the organism.
In general terms: Broth dilution looks for growth in wells or tubes with falling amounts of substance.

Another assay concerns Enterobacter cloacae. Description: Broth microdilution MIC testing. In kind it is cell-based. The note with it: Enterobacter cloacae MMX 6089, susceptible; for MIC: read-out: Minimal Inhibitory Concentration. On the procedure:
as §1, §2, §3, §4, §5, §6

In assay [1] the test system is Escherichia coli. Description: Broth microdilution MIC testing. The settings on record: for MIC: Escherichia coli, read-out: Minimal Inhibitory Concentration. In kind it is cell-based. On the procedure: as §1, §2, §3, §4, §5, §6
The subject of a further assay is Klebsiella pneumoniae. The assay can be described thus: Broth microdilution MIC testing. In kind it is cell-based. The note with it: Klebsiella pneumoniae MMX 214/ATCC 13883, susceptible; for MIC: ATCC13883, read-out: Minimal Inhibitory Concentration. On the procedure: as §1, §2, §3, §4, §5, §6
For assay [2], the system named is Pseudomonas aeruginosa. The assay can be described thus: Broth microdilution MIC testing. In kind it is cell-based. The settings on record: Pseudomonas aeruginosa MMX 103/ATCC 27853, susceptible, QC; for MIC: ATCC27853, read-out: Minimal Inhibitory Concentration. On the procedure: as §1, §2, §3, §4, §5, §6
Assay [3] has as its system Stenotrophomonas maltophila. The assay can be described thus: Broth microdilution MIC testing. In kind it is cell-based. The note with it: Stenotrophomonas maltophila MMX 4746, susceptible; for MIC: Stenotrophomonas sp. LMG 10879, read-out: Minimal Inhibitory Concentration. On the procedure:
as §1, §2, §3, §4, §5, §6

Assay [4] has as its system Escherichia coli. The note with it: Escherichia coli MMX 102/ATCC 25922, range in parentheses; cited from earlier work.
For assay [5], the system named is Pseudomonas aeruginosa. The settings on record: Pseudomonas aeruginosa MMX 103/ATCC 27853, range in parentheses; cited from earlier work.
Assay [6] relates to N. gonorrhoeae ATCC49226/MMX 683. Description: Agar dilution MIC assay (Example 1). In kind it is cell-based, Neisseria gonorrhoeae. The note with it: Neisseria gonorrhoeae MMX 683/ATCC 49226, QC. On the procedure: Neisseria gonococcus (N. gonorrhoeae) were assayed using a reference agar dilution method, see reference (2). Drug dilutions and drug-supplemented agar plates were prepared manually. Neisseria gonococcus was grown on Chocolate agar in a CO2 incubator overnight at 35° C. prior to assay. […] The MIC was read per CLSI guidelines, see reference (3).
Background: Agar dilution tests growth on a series of plates holding different concentrations.

Setting [7] is: Escherichia coli MMX 102/ATCC 25922, QC strain.

On to `NCC[C@H](O)C(=O)N[C@@H]1C[C@H](N)[C@@H](O[C@H]2O[C@H](CN)[C@@H](O)[C@H](O)[C@H]2O)[C@H](O)[C@H]1O[C@H]1O[C@H](CO)[C@@H](O)[C@H](N)[C@H]1O` [Amikacin], for which the MIC turned out to be 16 µg/mL (≈ 27.3 µM) in the assay with Acinetobacter baumannii; 1 µg/mL (≈ 1.71 µM) in the assay on Enterobacter cloacae; 4 µg/mL (≈ 6.83 µM) with Escherichia coli [1] (ATCC25922); 0.5 µg/mL (≈ 0.854 µM) with Escherichia coli [1]; 0.5 µg/mL (≈ 0.854 µM) in the assay on Klebsiella pneumoniae; 2 µg/mL (≈ 3.42 µM) in the assay with Pseudomonas aeruginosa [2]. Also, the MIC in assay [3] came to 2 µg/mL (≈ 3.42 µM). Further, the “CLSI QC range of MIC” value in the assay on Escherichia coli [4] is reported as “(0.5-4) μg/ml”; with Pseudomonas aeruginosa [5], “(1-4) μg/ml”.
Take `C[C@H]1c2cccc(O)c2C(=O)C2=C(O)[C@]3(O)C(=O)C(C(N)=O)=C(O)[C@@H](N(C)C)[C@@H]3[C@@H](O)[C@@H]21` [Doxycycline]: the MIC in the assay on Acinetobacter baumannii is 0.5 µg/mL (≈ 1.13 µM); in the assay on Enterobacter cloacae it was 1 µg/mL (≈ 2.25 µM); in the assay on Escherichia coli [1] (ATCC25922), 0.5 µg/mL (≈ 1.13 µM); with Escherichia coli [1], 0.25 µg/mL (≈ 0.563 µM); with Klebsiella pneumoniae, 1 µg/mL (≈ 2.25 µM); in the assay with Pseudomonas aeruginosa [2], over 8 µg/mL. Besides, the MIC in assay [3] was determined as 0.5 µg/mL (≈ 1.13 µM). In addition, the “Minimal Inhibitory Concentration” value (with Acinetobacter baumannii; in [3]) was 0.5 µg/mL each time.
`CC1=C(C(=O)O)N2C(=O)[C@@H](NC(=O)[C@H](N)c3ccccc3)[C@H]2SC1` [Cephalexin]: the MIC with Acinetobacter baumannii was over 32 µg/mL; in the assay on Enterobacter cloacae, over 32 µg/mL; with Escherichia coli [1] (ATCC25922), 8 µg/mL (≈ 23 µM); in the assay with Escherichia coli [1], 8 µg/mL (≈ 23 µM); with Klebsiella pneumoniae, 4 µg/mL (≈ 11.5 µM); in the assay on Pseudomonas aeruginosa [2] it was over 32 µg/mL. In addition, the MIC in assay [3] was over 32 µg/mL.
Turning to `C[C@@H](O)[C@H]1C(=O)N2C(C(=O)O)=C(S[C@@H]3CN[C@H](C(=O)N(C)C)C3)[C@H](C)[C@H]12` [Meropenem], the MIC with Acinetobacter baumannii was determined as 1 µg/mL (≈ 2.61 µM); in the assay with Enterobacter cloacae, 0.06 µg/mL (≈ 0.156 µM); in the assay on Escherichia coli [1] (ATCC25922), 0.015 µg/mL (≈ 0.0391 µM); in the assay on Escherichia coli [1] it was 0.015 µg/mL (≈ 0.0391 µM); in the assay with Klebsiella pneumoniae, 0.03 µg/mL (≈ 0.0782 µM); in the assay on Pseudomonas aeruginosa [2], 0.25 µg/mL (≈ 0.652 µM). Also, in assay [3], the MIC came out at 2 µg/mL (≈ 5.22 µM). The “Minimal Inhibitory Concentration” value was found to be 0.015 µg/mL with Escherichia coli [1] (setting [7]); 0.015 µg/mL in the assay on Escherichia coli [1] (Escherichia coli MMX 120, acrAB efflux pump knockout); 0.03 µg/mL in the assay on Klebsiella pneumoniae; 0.25 µg/mL with Pseudomonas aeruginosa [2]. For the same compound, the figures for the “CLSI QC range of MIC” value in the assay with Escherichia coli [4] and in the assay with Pseudomonas aeruginosa [5] were “(0.008-0.06) μg/ml” and “(0.12-1) μg/ml”, respectively.
Consider `CC(C)(O/N=C(\C(=O)N[C@@H]1C(=O)N2C(C(=O)[O-])=C(C[n+]3ccccc3)CS[C@H]12)c1csc(N)n1)C(=O)O` [Ceftazidime], for which the MIC in the assay on Acinetobacter baumannii was determined as 4 µg/mL (≈ 7.32 µM); in the assay on Enterobacter cloacae, 8 µg/mL (≈ 14.6 µM); in the assay on Escherichia coli [1] (ATCC25922) it was 0.25 µg/mL (≈ 0.457 µM); with Escherichia coli [1], 0.12 µg/mL (≈ 0.22 µM); in the assay with Klebsiella pneumoniae, 0.5 µg/mL (≈ 0.915 µM); in the assay on Pseudomonas aeruginosa [2], 1 µg/mL (≈ 1.83 µM). Besides, in assay [3], the MIC was 4 µg/mL (≈ 7.32 µM). Further, the “CLSI QC range of MIC” value in the assay with Escherichia coli [4] is on record as “(0.06-0.5) μg/ml”; in the assay with Pseudomonas aeruginosa [5], “(1-4) μg/ml”.
With `C[C@H]1COc2c(N3CCN(C)CC3)c(F)cc3c(=O)c(C(=O)O)cn1c23` [Levofloxacin], the MIC stood at 0.5 µg/mL (≈ 1.38 µM) in the assay on Acinetobacter baumannii; 0.03 µg/mL (≈ 0.083 µM) in the assay on Enterobacter cloacae; 0.015 µg/mL (≈ 0.0415 µM) in the assay on Escherichia coli [1] (ATCC25922); 0.03 µg/mL (≈ 0.083 µM) in the assay on Klebsiella pneumoniae; 1 µg/mL (≈ 2.77 µM) in the assay on Pseudomonas aeruginosa [2]; 0.5 µg/mL (≈ 1.38 µM) in assay [3]. Further, the “Minimal Inhibitory Concentration” value in the assay on Acinetobacter baumannii turned out to be 0.5 µg/mL; with Enterobacter cloacae it was 0.03 µg/mL; in the assay with Escherichia coli [1] (setting [7]), 0.015 µg/mL; in the assay with Klebsiella pneumoniae, 0.03 µg/mL; in assay [3] it was 0.5 µg/mL.
Take `O=C(O)c1cn(C2CC2)c2cc(N3CCNCC3)c(F)cc2c1=O` [Ciprofloxacin]: the MIC in assay [6] (ATCC49226, read-out: Minimal Inhibitory Concentration) worked out at 0.004 µg/mL (≈ 0.0121 µM). Further, the “Minimal Inhibitory Concentration” value in assay [6] turned out to be 0.004 µg/mL.

Values taken from patent US20210137948A1, “TREATMENT OF INFECTIONS CAUSED BY NEISSERIA GONOCOCCUS USING A HALOGENATED SALICYLANILIDE” (priority 2018, published 2021).
